This note sets out measurements from patent publication US20090318568A1, “ADHERENT COATING FOR TISSUE SURFACE AND/OR TRANS-TISSUE SURFACE SUBSTANCE DELIVERY” (priority 2009, published 2009).

The nature of data set [1]: Analysis of the filtered paclitaxel solution in glycerol + 1,2-propylene glycol. The data set is classed as physicochemical. As to conditions: 100 mg paclitaxel in 100 g USP glycerol warmed to about 50° C. The method, then: To this mixture, 60 g of 1,2-propylene glycol was added; the new mixture was mixed, and warmed further.
A short description of data set [2]: Analysis of the paclitaxel residue dissolved in 1,2-propylene glycol. The class given is physicochemical. The settings on record: 100 g 1,2-propylene glycol, 135° C. for 45 min. The method, then:
The residue from filtering the glycerol solution of EXAMPLE 1 was added to 100 g of 1,2-propylene glycol, and the resulting mixture warmed to 50° C.; little of the solid material appeared to dissolve. The mixture was then placed in an oven at 135° C. and heated for 45 min.

`CC(=O)O[C@H]1C(=O)[C@@]2(C)[C@H]([C@H](OC(=O)c3ccccc3)[C@]3(O)C[C@H](OC(=O)[C@H](O)[C@@H](NC(=O)c4ccccc4)c4ccccc4)C(C)=C1C3(C)C)[C@]1(OC(C)=O)CO[C@@H]1C[C@@H]2O` [paclitaxel]: the “dissolution in glycerol (observation)” value in data set [1] is reported as “little of the paclitaxel appeared to dissolve”. For the same compound, in data set [2], the concentration in solution came to 230 µg/mL.
